We go through twelve compounds from PubChem BioAssay (NCI).

Values joined by “and” are separate entries in the source; they are usually repeats but may differ in a detail not shown here. Equal entries are not always repeated.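 Briefly, cells in 96-well plates were exposed to five compound concentrations for 48 h, and endpoints were estimated by linear interpolation. At the GI50, growth is halved. TGI is the concentration that stops growth completely.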 Some results are limits rather than exact numbers.

Among the test systems are COLO 205 colon; HT29 colon; K-562 leukemia; RPMI-8226 leukemia; SNB-19 CNS; SNB-75 CNS; U251 CNS; NCI-H23 lung.
Common to all, as to assay: growth of human tumour cells (NCI), 48 h

On to `COc1ccc2c(c1)C(=O)c1c-2c(N2CCN(C(=O)CCNCCNCCO)CC2)nc2ccccc12`, for which the GI50 is 12.4 µM in the test with COLO 205 colon; 4.6 µM with HT29 colon; 2.97 µM in the test on K-562 leukemia; 11.3 µM in the test with RPMI-8226 leukemia; 17.5 µM in the test on SNB-19 CNS; 18.6 µM with SNB-75 CNS. Moreover, in the test with U251 CNS, the GI50 was 15.8 µM. Also, the TGI with COLO 205 colon was 29.8 µM; with HT29 colon, 16.7 µM; in the test with K-562 leukemia, 7.34 µM; in the test with RPMI-8226 leukemia, 33.2 µM; in the test with SNB-19 CNS it was 38 µM; in the test with SNB-75 CNS it was 37.4 µM. Further, in the test with U251 CNS, the TGI was found to be 33.8 µM.

On to `CC(=O)C(C=O)C(C)=O.CC(=O)CC(C)=O.CC(=O)CC(C)=O.[Ru]`, for which the GI50 was 29.9 µM in the test on COLO 205 colon; 21 µM in the test with HT29 colon; 20.7 µM in the test on K-562 leukemia; 12.1 µM with NCI-H23 lung; 52.1 µM in the test on SNB-19 CNS; over 100 µM with SNB-75 CNS. In the test on U251 CNS, the GI50 is 29.1 µM. The TGI in the test with COLO 205 colon was over 100 µM; in the test with HT29 colon it was over 100 µM; in the test on K-562 leukemia, over 100 µM; in the test on NCI-H23 lung, 44.3 µM; with SNB-19 CNS, over 100 µM; with SNB-75 CNS, over 100 µM. The same compound yielded a TGI with U251 CNS of over 100 µM.

Turning to `C#Cc1ccc(-n2c(/C=C/c3ccc4ccccc4c3)nc3ncccc3c2=O)cc1`, the GI50 with HT29 colon is 3.26 µM; with K-562 leukemia it was 2.43 µM; in the test on NCI-H23 lung it was 6.39 µM; in the test with RPMI-8226 leukemia it was 0.451 µM; in the test on SNB-75 CNS, 2.95 µM; in the test with U251 CNS, 3.69 µM. Besides, the TGI in the test on HT29 colon, with K-562 leukemia, with NCI-H23 lung, with RPMI-8226 leukemia, in the test on SNB-75 CNS and with U251 CNS was over 100 µM throughout.

As to `O=C(O)c1cn(C2CC2)c2cc(N3CCN(Cc4ccc5ccccc5c4O)CC3)c(F)cc2c1=O`, the GI50 in the test on COLO 205 colon is 3.27 µM; in the test on HT29 colon, 4.35 µM; in the test with NCI-H23 lung it was 3.51 µM; in the test on SNB-19 CNS it was 29.8 µM; in the test on SNB-75 CNS it was 1.87 µM; in the test with U251 CNS, 4.87 µM. Also, the TGI with COLO 205 colon is over 100 µM; with HT29 colon, over 100 µM; in the test with NCI-H23 lung it was over 100 µM; in the test with SNB-19 CNS it was over 100 µM; in the test with SNB-75 CNS, 6.73 µM; with U251 CNS, over 100 µM.

For `CNCCNc1nc2ccccc2c2c(=O)c3cccc(C)c3sc12`, the GI50 with COLO 205 colon was 0.921 µM; in the test on HT29 colon, 0.887 µM; in the test on K-562 leukemia it was 1.04 µM; in the test on NCI-H23 lung, 5.13 µM; in the test with RPMI-8226 leukemia, 1.16 µM; in the test on SNB-75 CNS, 1.14 µM. Besides, the GI50 with U251 CNS is 0.968 µM. Also, the TGI came to 1.92 µM in the test with COLO 205 colon; 1.92 µM in the test with HT29 colon; 2.33 µM in the test with K-562 leukemia; 11.7 µM in the test on NCI-H23 lung; 2.96 µM in the test with RPMI-8226 leukemia; 8.49 µM with SNB-75 CNS. In addition, the TGI with U251 CNS came out at 2.25 µM.

For `CCN(CCO)CCCOc1ccc2c(Nc3cc(CC(=O)Nc4cccc(F)c4)[nH]n3)ncnc2c1`, the GI50 with COLO 205 colon was 0.034 µM and 0.0244 µM; with HT29 colon, 13.4 µM; in the test on K-562 leukemia, 8.89 µM; in the test on NCI-H23 lung, 17.4 µM; in the test with RPMI-8226 leukemia, 15.4 µM; with SNB-19 CNS it was 15.4 µM. Further, the GI50 in the test with U251 CNS is 13.7 µM. Moreover, the TGI is 1.22 µM with COLO 205 colon; 66.2 µM and > 10 µM with HT29 colon; over 78.4 µM with K-562 leukemia; over 53.1 µM with NCI-H23 lung; 47.8 µM and > 2.17 µM with RPMI-8226 leukemia; over 60.6 µM with SNB-19 CNS. In the test with U251 CNS, the TGI is 29.4 µM and > 10 µM.

On to `O=C(/C=C/c1ccccc1)OCC1=C[C@@H](O)[C@@H]2C=CO[C@@H](OC3OC(CO)C(O)C(O)C3O)[C@H]12` (some centres not stated), for which the TGI in the test with COLO 205 colon, with HT29 colon, with NCI-H23 lung, with RPMI-8226 leukemia, with SNB-19 CNS and in the test with SNB-75 CNS was over 100 µM each time. The compound further came in with a TGI in the test on U251 CNS of over 100 µM.

Turning to `COC(=O)C1(C)CCCC2(C)c3cc(OC)ccc3C(=O)C(Br)C12` (configuration not stated), the TGI is 7.29 µM in the test on COLO 205 colon; over 10 µM in the test on HT29 colon; over 10 µM in the test on K-562 leukemia; over 10 µM with NCI-H23 lung; 6.53 µM in the test with RPMI-8226 leukemia; over 10 µM in the test on SNB-19 CNS. This compound had a TGI with U251 CNS of over 10 µM.

Take `Cc1cn2c(/C=C3/C(=O)Nc4ccc(Cl)cc43)c(C)nc2s1`: the TGI with HT29 colon is over 56.8 µM; in the test with K-562 leukemia, over 100 µM; with NCI-H23 lung, 0.37 µM; in the test with RPMI-8226 leukemia, over 100 µM; in the test on SNB-19 CNS it was over 42.4 µM; with SNB-75 CNS, 29.8 µM. This compound also came in with a TGI with U251 CNS of 28.7 µM. Further, the GI50 with NCI-H23 lung is 0.0454 µM; with RPMI-8226 leukemia, 0.0137 µM; with SNB-75 CNS it was 16.3 µM; in the test with U251 CNS it was under 0.0235 µM.

Take `O=C(c1ccco1)c1c(C(F)(F)F)n([O-])c2ccc(F)cc2[n+]1=O`: the GI50 in the test on COLO 205 colon was 0.524 µM; with K-562 leukemia, 0.065 µM; with NCI-H23 lung, 1.02 µM; in the test with RPMI-8226 leukemia, 0.18 µM; in the test on SNB-19 CNS, 1.06 µM; in the test with SNB-75 CNS, 1.59 µM. For the same compound, in the test on U251 CNS, the GI50 was 1.33 µM. Also, the TGI with COLO 205 colon was determined as 1.36 µM; in the test with K-562 leukemia it was 0.219 µM; with NCI-H23 lung it was 2.49 µM; with RPMI-8226 leukemia, 0.573 µM; in the test on SNB-19 CNS, 2.41 µM; in the test with SNB-75 CNS it was 7.91 µM. In the test on U251 CNS, this compound yielded a TGI of 2.6 µM.

For `CC1(C)OC(=O)C(=Cc2ccc([N+](=O)[O-])s2)C(=O)O1`, the TGI was 31 µM with COLO 205 colon; 38.5 µM with HT29 colon; 39.1 µM in the test on NCI-H23 lung; 37.1 µM in the test with RPMI-8226 leukemia; 31.6 µM in the test with SNB-19 CNS; 30.4 µM with U251 CNS.

As to `O=C1N=C(Nc2nc(-c3csc(NC4=NC(=O)/C(=C\c5ccc(Cl)cc5)S4)n3)cs2)S/C1=C/c1ccc(Cl)cc1`, the GI50 is 29.9 µM in the test with COLO 205 colon; 23.6 µM with HT29 colon; 7.23 µM with K-562 leukemia; 13.5 µM with NCI-H23 lung; 12 µM in the test with SNB-19 CNS; 4.83 µM in the test on U251 CNS. Besides, the TGI with COLO 205 colon, with HT29 colon, in the test on K-562 leukemia, in the test with NCI-H23 lung, in the test with SNB-19 CNS and in the test on U251 CNS was over 50 µM throughout.
